Measurements reported in ChEMBL document CHEMBL4020759, “Sulfoximines as ATR inhibitors: Analogs of VE-821” (2017).
The source made the active and inactive calls. The rule behind the calls is not given here.

Tests used:
HOP-62 = test: Growth inhibition of human HOP62 cells assessed as cell growth at 10 uM incubated for 48 hrs by sulforhodamine B assay; assay type: functional; conditions: HOP-62, 48 h, read-out: Activity
NCI-H522 = test: Growth inhibition of human NCI-H522 cells assessed as cell growth at 10 uM incubated for 48 hrs by sulforhodamine B assay; assay type: functional; conditions: NCI-H522, 48 h, read-out: Activity
[1] = target: Serine-protein kinase ATM (Homo sapiens) (UniProt Q13315); test: Inhibition of ATM in human U2OS cells assessed as reduction in hydroxyurea-induced Chk-2 phosphorylation at Thr68 residue at 10 uM preincubated for 1 hr followed by hydroxyurea challenge measured after 1 hr by Western blot analysis; assay type: cell-based
Chain of Serine-protein kinase ATM (Homo sapiens) (Q13315 whole entry): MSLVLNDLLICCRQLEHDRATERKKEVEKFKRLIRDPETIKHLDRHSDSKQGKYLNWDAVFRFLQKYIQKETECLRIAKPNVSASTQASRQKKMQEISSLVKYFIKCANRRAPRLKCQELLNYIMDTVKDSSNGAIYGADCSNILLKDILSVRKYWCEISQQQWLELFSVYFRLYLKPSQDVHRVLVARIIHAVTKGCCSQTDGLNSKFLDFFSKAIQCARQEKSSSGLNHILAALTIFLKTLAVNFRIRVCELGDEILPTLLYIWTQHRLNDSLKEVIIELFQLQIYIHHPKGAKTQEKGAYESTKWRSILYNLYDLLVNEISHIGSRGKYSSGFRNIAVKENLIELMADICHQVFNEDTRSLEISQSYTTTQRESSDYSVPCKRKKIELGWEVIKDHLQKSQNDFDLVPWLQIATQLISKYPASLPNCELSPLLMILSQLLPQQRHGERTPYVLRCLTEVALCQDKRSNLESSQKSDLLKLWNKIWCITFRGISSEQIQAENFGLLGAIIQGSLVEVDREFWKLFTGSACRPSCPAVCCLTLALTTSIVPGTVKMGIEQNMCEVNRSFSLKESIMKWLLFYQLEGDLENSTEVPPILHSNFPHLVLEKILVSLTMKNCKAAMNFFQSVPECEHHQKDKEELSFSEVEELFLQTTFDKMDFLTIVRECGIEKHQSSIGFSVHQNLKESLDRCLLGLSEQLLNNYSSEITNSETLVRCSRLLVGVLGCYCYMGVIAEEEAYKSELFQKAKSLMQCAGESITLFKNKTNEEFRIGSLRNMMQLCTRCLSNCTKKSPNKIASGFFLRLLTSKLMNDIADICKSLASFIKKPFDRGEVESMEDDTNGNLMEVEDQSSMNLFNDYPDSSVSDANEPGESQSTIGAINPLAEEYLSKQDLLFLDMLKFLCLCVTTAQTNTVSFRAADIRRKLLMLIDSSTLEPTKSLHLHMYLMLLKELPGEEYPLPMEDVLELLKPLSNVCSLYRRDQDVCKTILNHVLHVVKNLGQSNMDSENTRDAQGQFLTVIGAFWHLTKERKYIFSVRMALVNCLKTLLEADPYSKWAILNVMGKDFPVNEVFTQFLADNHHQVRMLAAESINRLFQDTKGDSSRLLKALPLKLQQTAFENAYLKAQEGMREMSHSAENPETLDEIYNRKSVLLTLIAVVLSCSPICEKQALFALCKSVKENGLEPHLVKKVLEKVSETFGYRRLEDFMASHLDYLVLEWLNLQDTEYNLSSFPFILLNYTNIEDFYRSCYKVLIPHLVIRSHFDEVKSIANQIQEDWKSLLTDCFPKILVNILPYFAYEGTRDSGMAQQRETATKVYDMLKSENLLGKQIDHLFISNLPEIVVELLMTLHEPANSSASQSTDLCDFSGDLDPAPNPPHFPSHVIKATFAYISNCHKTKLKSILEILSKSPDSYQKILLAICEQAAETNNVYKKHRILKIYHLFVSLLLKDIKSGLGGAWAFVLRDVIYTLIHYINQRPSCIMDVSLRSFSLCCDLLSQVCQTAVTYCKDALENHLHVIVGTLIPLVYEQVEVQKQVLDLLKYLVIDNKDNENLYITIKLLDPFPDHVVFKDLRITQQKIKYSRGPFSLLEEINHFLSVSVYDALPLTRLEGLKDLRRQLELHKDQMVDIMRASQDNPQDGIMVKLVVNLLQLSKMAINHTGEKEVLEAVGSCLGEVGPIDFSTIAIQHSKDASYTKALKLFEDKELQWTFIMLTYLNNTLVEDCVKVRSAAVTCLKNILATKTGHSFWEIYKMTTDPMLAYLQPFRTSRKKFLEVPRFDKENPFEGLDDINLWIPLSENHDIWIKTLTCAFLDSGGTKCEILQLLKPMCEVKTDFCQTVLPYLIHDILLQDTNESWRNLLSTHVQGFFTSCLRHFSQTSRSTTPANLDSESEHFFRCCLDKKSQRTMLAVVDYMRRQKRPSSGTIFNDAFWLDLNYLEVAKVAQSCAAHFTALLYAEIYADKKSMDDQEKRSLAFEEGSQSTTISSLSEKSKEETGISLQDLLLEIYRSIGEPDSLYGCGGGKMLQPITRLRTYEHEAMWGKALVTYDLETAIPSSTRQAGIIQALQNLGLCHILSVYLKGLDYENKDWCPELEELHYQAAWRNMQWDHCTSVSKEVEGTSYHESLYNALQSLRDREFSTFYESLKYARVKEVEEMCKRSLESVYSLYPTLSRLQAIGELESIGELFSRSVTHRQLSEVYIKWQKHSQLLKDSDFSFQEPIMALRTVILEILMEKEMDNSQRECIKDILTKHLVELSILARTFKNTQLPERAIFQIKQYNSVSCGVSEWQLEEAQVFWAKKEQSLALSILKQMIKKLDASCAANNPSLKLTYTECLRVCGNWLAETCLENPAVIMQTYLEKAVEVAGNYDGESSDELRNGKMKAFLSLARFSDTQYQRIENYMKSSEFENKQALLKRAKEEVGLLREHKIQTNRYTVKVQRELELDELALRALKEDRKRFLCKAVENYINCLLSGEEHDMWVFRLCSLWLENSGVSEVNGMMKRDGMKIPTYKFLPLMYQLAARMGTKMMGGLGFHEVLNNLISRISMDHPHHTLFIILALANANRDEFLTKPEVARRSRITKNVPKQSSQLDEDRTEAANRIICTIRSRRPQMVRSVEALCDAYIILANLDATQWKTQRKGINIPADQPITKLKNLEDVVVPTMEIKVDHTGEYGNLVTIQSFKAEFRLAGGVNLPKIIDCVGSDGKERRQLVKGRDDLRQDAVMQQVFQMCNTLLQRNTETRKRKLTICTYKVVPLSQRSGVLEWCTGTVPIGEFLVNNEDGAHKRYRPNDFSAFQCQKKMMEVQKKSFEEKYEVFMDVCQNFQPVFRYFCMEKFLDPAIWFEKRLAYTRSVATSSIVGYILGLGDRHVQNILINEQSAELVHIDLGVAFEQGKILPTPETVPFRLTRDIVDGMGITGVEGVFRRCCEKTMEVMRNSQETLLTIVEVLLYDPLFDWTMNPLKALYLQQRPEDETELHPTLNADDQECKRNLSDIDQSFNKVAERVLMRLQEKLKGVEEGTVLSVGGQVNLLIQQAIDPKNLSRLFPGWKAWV

SK-MEL-2 = test: Growth inhibition of human SK-MEL-2 cells assessed as cell growth at 10 uM incubated for 48 hrs by sulforhodamine B assay; assay type: functional; conditions: SK-MEL-2, 48 h, read-out: Activity
OVCAR-5 = test: Growth inhibition of human OVCAR5 cells assessed as cell growth at 10 uM incubated for 48 hrs by sulforhodamine B assay; assay type: functional; conditions: OVCAR-5, 48 h, read-out: Activity
A549 = test: Growth inhibition of human A549/ATCC cells assessed as cell growth at 10 uM incubated for 48 hrs by sulforhodamine B assay; assay type: functional; conditions: A549, 48 h, read-out: Activity
SF-539 = test: Growth inhibition of human SF539 cells assessed as cell growth at 10 uM incubated for 48 hrs by sulforhodamine B assay; assay type: functional; conditions: SF-539, 48 h, read-out: Activity
ACHN = test: Growth inhibition of human ACHN cells assessed as cell growth at 10 uM incubated for 48 hrs by sulforhodamine B assay; assay type: functional; conditions: read-out: Activity
SW-620 = test: Growth inhibition of human SW620 cells assessed as cell growth at 10 uM incubated for 48 hrs by sulforhodamine B assay; assay type: functional; conditions: SW-620, 48 h, read-out: Activity
LOX IMVI = test: Growth inhibition of human LOXIMVI cells assessed as cell growth at 10 uM incubated for 48 hrs by sulforhodamine B assay; assay type: functional; conditions: read-out: Activity
[2] = target: Serine/threonine-protein kinase ATR (Homo sapiens) (UniProt Q13535); test: Inhibition of ATR in human Ramos cells assessed as reduction in […] at 10 uM after 48 hrs by Western blot analysis; assay type: cell-based
SK-MEL-28 = test: Growth inhibition of human SK-MEL-28 cells assessed as cell growth at 10 uM incubated for 48 hrs by sulforhodamine B assay; assay type: functional; conditions: SK-MEL-28, 48 h, read-out: Activity
SF-295 = test: Growth inhibition of human SF295 cells assessed as cell growth at 10 uM incubated for 48 hrs by sulforhodamine B assay; assay type: functional; conditions: SF-295, 48 h, read-out: Activity
SNB-19 = test: Growth inhibition of human SNB19 cells assessed as cell growth at 10 uM incubated for 48 hrs by sulforhodamine B assay; assay type: functional; conditions: SNB-19, 48 h, read-out: Activity
786-0 = test: Growth inhibition of human 786-0 cells assessed as cell growth at 10 uM incubated for 48 hrs by sulforhodamine B assay; assay type: functional; conditions: 786-0, 48 h, read-out: Activity
SK-OV-3 = test: Growth inhibition of human SKOV3 cells assessed as cell growth at 10 uM incubated for 48 hrs by sulforhodamine B assay; assay type: functional; conditions: SK-OV-3, 48 h, read-out: Activity
DU-145 = test: Growth inhibition of human DU145 cells assessed as cell growth at 10 uM incubated for 48 hrs by sulforhodamine B assay; assay type: functional; conditions: DU-145, 48 h, read-out: Activity
SR = test: Growth inhibition of human SR cells assessed as cell growth at 10 uM incubated for 48 hrs by sulforhodamine B assay; assay type: functional; conditions: read-out: Activity
NCI/ADR-RES = test: Growth inhibition of human NCI/ADR-RES cells assessed as cell growth at 10 uM incubated for 48 hrs by sulforhodamine B assay; assay type: functional; conditions: read-out: Activity
COLO 205 = test: Growth inhibition of human COLO205 cells assessed as cell growth at 10 uM incubated for 48 hrs by sulforhodamine B assay; assay type: functional; conditions: COLO 205, 48 h, read-out: Activity
TK-10 = test: Growth inhibition of human TK10 cells assessed as cell growth at 10 uM incubated for 48 hrs by sulforhodamine B assay; assay type: functional; conditions: TK-10, 48 h, read-out: Activity
[3] = target: Serine-protein kinase ATM (Homo sapiens) (UniProt Q13315); test: Inhibition of ATM in human U2OS cells assessed as reduction in etoposide-induced Chk-2 phosphorylation at Thr68 residue at 10 uM preincubated for 1 hr followed by etoposide challenge measured after 20 mins by Western blot analysis; assay type: cell-based
OVCAR-3 = test: Growth inhibition of human OVCAR3 cells assessed as cell growth at 10 uM incubated for 48 hrs by sulforhodamine B assay; assay type: functional; conditions: OVCAR-3, 48 h, read-out: Activity
[4] = target: Serine/threonine-protein kinase ATR (Homo sapiens) (UniProt Q13535); test: Inhibition of ATR in human U2OS cells assessed as reduction in hydroxyurea-induced H2AX phosphorylation at Ser139 residue at 3 to 10 uM preincubated for 1 hr followed by hydroxyurea challenge measured after 2 hrs by Western blot analysis; assay type: cell-based
CCRF-CEM = test: Growth inhibition of human CCRF-CEM cells assessed as cell growth at 10 uM incubated for 48 hrs by sulforhodamine B assay; assay type: functional; conditions: read-out: Activity
M14 = test: Growth inhibition of human M14 cells assessed as cell growth at 10 uM incubated for 48 hrs by sulforhodamine B assay; assay type: functional; conditions: M14, 48 h, read-out: Activity
[5] = target: Serine/threonine-protein kinase ATR (Homo sapiens) (UniProt Q13535); test: Inhibition of ATR in human U2OS cells assessed as reduction in hydroxyurea-induced Chk-1 phosphorylation at Ser345 residue by measuring ratio of GAPDH level to phosphorylated Chk-1 level at 3 uM preincubated for 1 hr followed by hydroxyurea challenge measured after 2 hrs by Western blot analysis; assay type: cell-based
NCI-H322M = test: Growth inhibition of human NCI-H322M cells assessed as cell growth at 10 uM incubated for 48 hrs by sulforhodamine B assay; assay type: functional; conditions: read-out: Activity
SF-268 = test: Growth inhibition of human SF268 cells assessed as cell growth at 10 uM incubated for 48 hrs by sulforhodamine B assay; assay type: functional; conditions: SF-268, 48 h, read-out: Activity
RXF 393 = test: Growth inhibition of human RXF393 cells assessed as cell growth at 10 uM incubated for 48 hrs by sulforhodamine B assay; assay type: functional; conditions: RXF 393, 48 h, read-out: Activity
CAKI-1 = test: Growth inhibition of human Caki1 cells assessed as cell growth at 10 uM incubated for 48 hrs by sulforhodamine B assay; assay type: functional; conditions: CAKI-1, 48 h, read-out: Activity
K562 = test: Growth inhibition of human K562 cells assessed as cell growth at 10 uM incubated for 48 hrs by sulforhodamine B assay; assay type: functional; conditions: K562, 48 h, read-out: Activity
NCI-H226 = test: Growth inhibition of human NCI-H226 cells assessed as cell growth at 10 uM incubated for 48 hrs by sulforhodamine B assay; assay type: functional; conditions: NCI-H226, 48 h, read-out: Activity

Structure (SMILES) | growth at 10 µM (HOP-62) [%] | growth at 10 µM (NCI-H522) [%] | inhibition [1] | growth at 10 µM (SK-MEL-2) [%] | growth at 10 µM (OVCAR-5) [%] | growth at 10 µM (A549) [%] | growth at 10 µM (SF-539) [%] | growth at 10 µM (ACHN) [%] | growth at 10 µM (SW-620) [%] | growth at 10 µM (LOX IMVI) [%] | inhibition [2] | growth at 10 µM (SK-MEL-28) [%] | growth at 10 µM (SF-295) [%] | growth at 10 µM (SNB-19) [%] | growth at 10 µM (786-0) [%] | growth at 10 µM (SK-OV-3) [%] | growth at 10 µM (DU-145) [%] | growth at 10 µM (SR) [%] | growth at 10 µM (NCI/ADR-RES) [%] | growth at 10 µM (COLO 205) [%] | further results
CS(=O)(=NC#N)c1ccc(-c2cnc(N)c(C(=O)Nc3ccccc3)n2)cc1 (stereo unspecified) | 97 | 86.8 | inactive | 94 | 163 | 63.1 | 69 | 51.4 | 109 | 66.5 | Active | 111 | 99.2 | 105 | 45.5 | 56.8 | 75.6 | 44 | 96.9 | 88.3 | growth at 10 µM (TK-10): 97.4%; inhibition [3]: inactive; growth at 10 µM (OVCAR-3): 89.4%; inhibition [4]: Dose-dependent effect; growth at 10 µM (CCRF-CEM): 79.9%; growth at 10 µM (M14): 77.7%; Ratio [5]: 58.1; growth at 10 µM (NCI-H322M): 78.6%; growth at 10 µM (SF-268): 87.7%; growth at 10 µM (RXF 393): 71%; growth at 10 µM (CAKI-1): 47.2%; growth at 10 µM (K562): 70.8%; growth at 10 µM (NCI-H226): 92%
C/S(=N\C#N)c1ccc(-c2cnc(N)c(C(=O)Nc3ccccc3)n2)cc1 (stereo unspecified) | 110 | 77.2 | inactive | 92.2 | 120 | 85.4 | 85.7 | 54 | 85.9 | 77.8 | Active | 97.4 | 114 | 104 | 59.5 | 68 | 80.3 | 57.1 | 108 | 76.9 | growth at 10 µM (TK-10): 93.6%; inhibition [3]: inactive; growth at 10 µM (OVCAR-3): 83.4%; inhibition [4]: Dose-dependent effect; growth at 10 µM (CCRF-CEM): 83.5%; growth at 10 µM (M14): 69.5%; Ratio [5]: 40.1; growth at 10 µM (NCI-H322M): 71.3%; growth at 10 µM (SF-268): 88.4%; growth at 10 µM (RXF 393): 62.9%; growth at 10 µM (CAKI-1): 53.2%; growth at 10 µM (K562): 62.2%; growth at 10 µM (NCI-H226): 88.5%
